This is an account of results in ChEMBL document CHEMBL4627387, “Cucurbitane-Type Triterpenoids from the Vines of Momordica charantia and Their Anti-inflammatory Activities” (J Nat Prod, 2020).

The source made the active and inactive calls. No cut-off for these calls is given here.

The test system of data set [1] is RAW264.7. Briefly: Cytotoxicity against mouse RAW264.7 cells assessed as reduction in cell viability after 24 hrs by alamarBlue assay. The class given is cell-based. Particulars: RAW264.7, 24 h.
In data set [2] the test system is RAW264.7. Briefly: Antiinflammatory activity in mouse RAW264.7 cells assessed as inhibition of LPS-induced NO production incubated for 12 hrs by Griess reagent based assay. The class given is functional.
Data set [3] can be described thus: Cytotoxicity against mouse RAW264.7 cells assessed as cell viability at 15 ug/ml after 24 hrs by alamarBlue assay relative to control. The class given is cell-based. Particulars: read-out: Activity. (In general: Resazurin is reduced to fluorescent resorufin, in cell work by metabolically active cells.)
A further data set has as its system MCF7. Kind of data set: Antiproliferative activity against human MCF7 cells assessed as reduction in cell viability after 48 hrs by alamarBlue assay. The format is functional, cell-based.
The next data set has as its system HEp-2. Kind of data set: Antiproliferative activity against human Hep2 cells assessed as reduction in cell viability after 48 hrs by alamarBlue assay. The format is functional, cell-based.
The test system of another data set is WiDr. Briefly: Antiproliferative activity against human WiDr cells assessed as reduction in cell viability after 48 hrs by alamarBlue assay. The format is functional, cell-based.
Data set [4] concerns Human immunodeficiency virus 1. Kind of data set: Antiviral activity against HIV 1 NL4-3 infected in human MT4 cells assessed as reduction in viral replication and measured on day 3 post infection by Nano-glo luciferase reporter gene assay. The class given is functional, organism-based.
Another data set has as its system HepG2. Kind of data set: Antiproliferative activity against human HepG2 cells assessed as reduction in cell viability after 48 hrs by alamarBlue assay. The class given is functional, cell-based.

As for `O=c1c(O)c(-c2ccc(O)c(O)c2)oc2cc(O)cc(O)c12` [QUERCETIN], the IC50 (as a rule, the concentration that gives 50% inhibition) with RAW264.7 [1] stood at 4.2 µM. In addition, in the data set with RAW264.7 [2], the “inhibition (INH)” value was found to be 88.9%. In data set [3], the viability at 24 h, 15 ug/ml is 142%.
On to `COC(=O)CC(=O)O[C@H]1CC[C@@H]2C(=C[C@H](O)[C@@H]3[C@@]2(C=O)CC[C@]2(C)[C@@H]([C@H](C)C/C=C/C(C)(C)OC)CC[C@@]32C)C1(C)C`, for which, in the data set with RAW264.7 [1], the IC50 turned out to be 15.6 µM. The outcome (in the data set with MCF7; in the data set on HEp-2; with WiDr; in data set [4]; in the data set on HepG2) was inactive. Also, in the data set with RAW264.7 [2], the “inhibition (INH)” value is listed as 64.3%. Also, in data set [3], the viability at 24 h, 15 ug/ml amounted to 69%.
`CO[C@@H](C=C(C)C)C[C@@H](C)[C@H]1CC[C@@]2(C)[C@@H]3[C@@H](O)C=C4[C@@H](CC[C@H](OC(=O)CC(=O)O)C4(C)C)[C@]3(C=O)CC[C@]12C`: the IC50 in the data set with RAW264.7 [1] amounted to 16.1 µM. Moreover, the outcome (in the data set on MCF7; in the data set with HEp-2; in the data set with WiDr; in data set [4]; in the data set on HepG2) was inactive. In addition, the “inhibition (INH)” value with RAW264.7 [2] stood at 68.8%. In addition, in data set [3], the viability at 24 h, 15 ug/ml was found to be 61.9%.
For the molecule `CO[C@H]1C=C2[C@@H](CC[C@H](OC(=O)CC(=O)O)C2(C)C)[C@]2(C=O)CC[C@]3(C)[C@@H]([C@H](C)C/C=C/C(C)(C)OC)CC[C@@]3(C)[C@H]12`, in the data set on RAW264.7 [1], the IC50 was found to be 22.1 µM. For the same molecule, the result (in the data set on MCF7; in the data set with HEp-2; in the data set with WiDr; in data set [4]; in the data set on HepG2) was inactive. Besides, in the data set with RAW264.7 [2], the “inhibition (INH)” value is listed as 56.5%. Besides, in data set [3], the viability at 24 h, 15 ug/ml amounted to 72.4%.
Consider `CCOC(C)(C)/C=C/C[C@@H](C)[C@H]1CC[C@@]2(C)[C@@H]3[C@@H](O)C=C4[C@@H](CC[C@H](OC(=O)CC(=O)O)C4(C)C)[C@]3(C=O)CC[C@]12C`, for which the IC50 with RAW264.7 [1] turned out to be 24 µM. In addition, the result with MCF7, in the data set with HEp-2, in the data set with WiDr and in the data set with HepG2 was inactive. The “inhibition (INH)” value with RAW264.7 [2] is reported as 50.4%. In addition, the viability at 24 h, 15 ug/ml in data set [3] worked out at 89.7%.
On to `COC(C)(C)/C=C/C[C@@H](C)[C@H]1CC[C@@]2(C)[C@@H]3[C@@H](O)C=C4[C@@H](CC[C@H](OC(=O)CC(=O)O)C4(C)C)[C@]3(C=O)CC[C@]12C`, for which, in data set [4], the result was inactive.
`C/C=C/C(=O)O[C@H]1CC[C@@H]2C(=C[C@H](O)[C@@H]3[C@@]2(C=O)CC[C@]2(C)[C@@H]([C@H](C)C/C=C/C(C)(C)O)CC[C@@]32C)C1(C)C`: the IC50 in the data set on RAW264.7 [1] came to 19.1 µM. The result in the data set with MCF7, with HEp-2, in the data set with WiDr and in the data set with HepG2 was inactive. In addition, the “inhibition (INH)” value in the data set with RAW264.7 [2] was 73.3%. Also, the viability at 24 h, 15 ug/ml in data set [3] is 94.7%.
As to `CO[C@H]1C=C2[C@@H](CC[C@H](OC(=O)CC(=O)O)C2(C)C)[C@]2(C=O)CC[C@]3(C)[C@@H]([C@H](C)C/C=C/C(C)(C)O)CC[C@@]3(C)[C@H]12`, in the data set with RAW264.7 [1], the IC50 stood at 24.4 µM. In addition, the result in the data set on MCF7, in the data set with HEp-2, in the data set with WiDr and in the data set with HepG2 was inactive. For the same molecule, the “inhibition (INH)” value in the data set with RAW264.7 [2] came out at 51.2%. Further, in data set [3], the viability at 24 h, 15 ug/ml is 125%.
In the case of `C[C@H](C/C=C/C(C)(C)O)[C@H]1CC[C@@]2(C)[C@@H]3[C@@H](O)C=C4[C@@H](CC[C@H](OC(=O)CC(=O)O)C4(C)C)[C@]3(C=O)CC[C@]12C`, in the data set on RAW264.7 [1], the half-inhibitory concentration (IC50) turned out to be 16 µM. The outcome with MCF7, in the data set on HEp-2, in the data set with WiDr and in the data set with HepG2 was inactive. Also, the “inhibition (INH)” value in the data set on RAW264.7 [2] was found to be 77%. The viability at 24 h, 15 ug/ml in data set [3] worked out at 53.8%.
Take `CO[C@H]1C=C2[C@@H](CC[C@H](O)C2(C)C)[C@]2(C=O)CC[C@]3(C)[C@@H]([C@H](C)C/C=C/C(C)(C)OC)CC[C@@]3(C)[C@H]12`: the IC50 in the data set with RAW264.7 [1] is 35.6 µM. Moreover, the outcome in the data set on MCF7, with HEp-2, in the data set on WiDr and with HepG2 was inactive. Also, in the data set on RAW264.7 [2], the “inhibition (INH)” value worked out at 35%. In addition, the viability at 24 h, 15 ug/ml in data set [3] is 90.5%.
On to `CO[C@@H]1O[C@]23C=C[C@@H]4[C@@]1(CC[C@]1(C)[C@@H]([C@H](C)C/C=C/C(C)(C)O)CC[C@@]41C)[C@@H]2CC[C@H](OC(=O)CC(=O)O)C3(C)C`, for which, in the data set on RAW264.7 [1], the IC50 was determined as 29.1 µM. Moreover, the result in the data set on MCF7, in the data set with HEp-2, in the data set on WiDr and in the data set on HepG2 was inactive. Moreover, the “inhibition (INH)” value in the data set with RAW264.7 [2] is recorded as 42.6%. In addition, in data set [3], the viability at 24 h, 15 ug/ml came out at 113%.
As to `COC(=O)CC(=O)O[C@H]1CC[C@@H]2C(=C[C@H](O)[C@@H]3[C@@]2(C=O)CC[C@]2(C)[C@@H]([C@H](C)C/C=C/C(C)(C)O)CC[C@@]32C)C1(C)C`, the IC50 in the data set on RAW264.7 [1] turned out to be 20.3 µM. Moreover, the outcome (in the data set with MCF7; in the data set on HEp-2; with WiDr; in data set [4]; in the data set with HepG2) was inactive. Moreover, the “inhibition (INH)” value with RAW264.7 [2] is reported as 65.1%. Moreover, the viability at 24 h, 15 ug/ml in data set [3] is 67.6%.
On to `CO[C@H]1O[C@]23C=C[C@@H]4[C@@]1(CC[C@]1(C)[C@@H]([C@H](C)C/C=C/C(C)(C)O)CC[C@@]41C)[C@@H]2CC[C@H](OC(=O)CC(=O)O)C3(C)C`, for which, in the data set with RAW264.7 [1], the IC50 was found to be 11.3 µM. The outcome in the data set on MCF7, with HEp-2, with WiDr and with HepG2 was inactive. In the data set on RAW264.7 [2], the “inhibition (INH)” value was found to be 66.1%. Further, in data set [3], the viability at 24 h, 15 ug/ml worked out at 59.6%.
